# Laboratory results reported in US9297813B2, “Targeting metabolic enzymes in human cancer” (Agency for Science, Technology and Research, priority 2010, dated 2016).
# Assays:
# [1] = system: cytoplasmic and mitochondrial aspartate aminotransferase; settings: cited from earlier work
# GLDC [2] = molecular target: T1, GLDC (Homo sapiens, UniProt P23378); settings: cited from earlier work
# T1 sequence (P23378 36-1020): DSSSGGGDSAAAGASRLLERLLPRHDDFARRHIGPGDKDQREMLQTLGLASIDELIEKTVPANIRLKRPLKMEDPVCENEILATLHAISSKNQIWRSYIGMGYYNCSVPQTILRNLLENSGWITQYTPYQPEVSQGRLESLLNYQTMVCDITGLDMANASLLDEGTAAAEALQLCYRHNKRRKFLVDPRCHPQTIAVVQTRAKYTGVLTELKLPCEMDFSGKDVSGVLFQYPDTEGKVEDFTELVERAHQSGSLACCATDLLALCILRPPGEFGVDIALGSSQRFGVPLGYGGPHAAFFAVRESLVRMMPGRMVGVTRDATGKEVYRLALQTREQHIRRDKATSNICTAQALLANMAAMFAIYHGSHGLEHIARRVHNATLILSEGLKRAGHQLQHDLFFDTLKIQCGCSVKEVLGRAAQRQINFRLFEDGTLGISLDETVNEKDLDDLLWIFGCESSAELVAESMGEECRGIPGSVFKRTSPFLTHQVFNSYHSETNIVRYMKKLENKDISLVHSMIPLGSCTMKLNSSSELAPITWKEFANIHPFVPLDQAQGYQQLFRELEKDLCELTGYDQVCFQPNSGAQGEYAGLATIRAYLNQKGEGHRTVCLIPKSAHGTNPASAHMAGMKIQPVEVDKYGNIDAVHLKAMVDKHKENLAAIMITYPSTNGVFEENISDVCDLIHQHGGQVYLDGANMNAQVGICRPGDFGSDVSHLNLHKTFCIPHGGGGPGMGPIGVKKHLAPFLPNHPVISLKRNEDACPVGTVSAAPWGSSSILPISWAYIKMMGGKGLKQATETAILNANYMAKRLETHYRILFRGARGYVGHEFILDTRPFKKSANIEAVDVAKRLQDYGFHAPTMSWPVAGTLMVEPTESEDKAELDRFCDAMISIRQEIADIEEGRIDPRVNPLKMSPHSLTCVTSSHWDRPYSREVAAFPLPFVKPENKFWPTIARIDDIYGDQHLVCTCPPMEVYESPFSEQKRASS
# GLDC [3] = molecular target: T1, GLDC; experiment: Victorin: inhibition of GLDC expression, tumour formation and cell proliferation (no method given)
# A549 cells [4] = experiment: Soft agar colony formation, sarcosine rescue after GLDC knockdown; assay type: cell-based, human; settings: 10 μM sarcosine
# Description: (F) Effects of sarcosine on soft agar colony formation after GLDC knockdown in A549 cells. 1000 cells were seeded in soft agar at clonal density and exposed to 10 μM sarcosine for 14 days.
# Soft agar assays were conducted as described previously (Viswanathan et al., 2009). We stained colonies with 1% INT and counted them after 3-4 weeks of growth. For sarcosine rescue experiment, 10 μM of sarcosine (sigma) or PBS were added to top cells layer of agar and growth medium containing sarcosine were changed every 3 days before counting colonies.
# 3T3 cells = experiment: Adherent colony formation with methotrexate, 3T3 cells overexpressing GLDC; assay type: cell-based, mouse; settings: low doses of methotrexate
# Description: (§1) (E) Effects of the anti-folate drug methotrexate on colony formation after GLDC overexpression or knockdown. 3T3 and HLF cells overexpressing GLDC were plated at clonal density and exposed to varying concentrations of methotrexate for 8 days. A549 cells with GLDC knockdown were plated in soft agar at clonal density and exposed to varying concentrations of methotrexate for 14 days.
# (§2) Adherent colony formation was performed by seeding 200-3000 single cells into 10 cm-culture dish and maintained for 10-14 days in DMEM/10% FBS. Colonies were stained by Wright-Giemsa and those colonies containing more than 50 cells were counted. For methotrexate (Sigma) treatment assay, cells were maintained in growth medium containing serial dilution of methotrexate (0, 0.1, 0.2, 0.5, 1, 2, 5, 10, 20 uM) and fresh medium were changed every 3 days.
# A549 cells [5] = experiment: Soft agar colony formation with methotrexate, A549 cells with GLDC knockdown; assay type: cell-based, human; settings: methotrexate in combination with GLDC shRNA versus either alone, 14 days
# HLF cells = experiment: Adherent colony formation with methotrexate, HLF cells overexpressing GLDC; assay type: cell-based, human; settings: low doses of methotrexate
# Description: as §1, §2
smiles,measurement,setting,value
"NOCC(=O)O [Aminooxyacetate, (Aminooxy) acetate]",inhibition of aspartate aminotransferase or glutamate transaminases,[1],powerful inhibitor
same,GLDC binding and inhibition of GLDC activity,GLDC [2],binds to GLDC and inhibits GLDC activity
CC(C[C@H](NC(=O)C(O)O)C(=O)N[C@H](C(=O)N[C@@H]1C(=O)N/C(=C/Cl)C(=O)N[C@H](C(=O)O)CC2=C(CC(O)C2=O)O[C@H]1C(C)C)[C@H](O)CCCN)C(Cl)Cl (some centres unmarked) [Victorin],inhibition of GLDC expression,GLDC [3],able to inhibit GLDC expression
same,tumour formation and cell proliferation,GLDC [3],block or reduced tumour formation and cell proliferation
"CNCC(=O)O [sarcosine, N-methylglycine]",rescue of proliferation defect upon GLDC knockdown,"A549 cells [4]; 14 days, A549 cells with GLDC retroviral knockdown",significantly rescue the proliferation defect
same,effect on control A549 cells,A549 cells [4]; control A549 cells,little effect
CN(Cc1cnc2nc(N)nc(N)c2n1)c1ccc(C(=O)N[C@@H](CCC(=O)O)C(=O)O)cc1 [methotrexate],GLDC-induced proliferation (colony formation),"3T3 cells; 3T3 cells overexpressing GLDC, 8 days",specifically abrogated GLDC-induced proliferation
same,effect on control cells,3T3 cells; control 3T3 cells,little effects
same,killing of transformed A549 cells,A549 cells [5],killed transformed A549 cells much more effectively than either alone
same,GLDC-induced proliferation (colony formation),"HLF cells; HLF cells overexpressing GLDC, 8 days",specifically abrogated GLDC-induced proliferation
same,effect on control cells,HLF cells; control HLF cells,little effects
